# T1: SmoA (Atu3277), flavin mononucleotide reductase (Agrobacterium fabrum, UniProt Q7CS24)
# T1 sequence (Q7CS24 1-174): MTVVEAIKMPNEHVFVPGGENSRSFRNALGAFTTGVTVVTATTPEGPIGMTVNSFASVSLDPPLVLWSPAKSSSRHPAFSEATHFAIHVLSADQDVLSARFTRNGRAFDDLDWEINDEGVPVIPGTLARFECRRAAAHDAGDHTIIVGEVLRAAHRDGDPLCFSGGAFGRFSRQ
# T2: SmoB (Atu3278), 6-OG reductase (Agrobacterium fabrum, UniProt A9CEY6)
# T2 sequence (A9CEY6 1-297): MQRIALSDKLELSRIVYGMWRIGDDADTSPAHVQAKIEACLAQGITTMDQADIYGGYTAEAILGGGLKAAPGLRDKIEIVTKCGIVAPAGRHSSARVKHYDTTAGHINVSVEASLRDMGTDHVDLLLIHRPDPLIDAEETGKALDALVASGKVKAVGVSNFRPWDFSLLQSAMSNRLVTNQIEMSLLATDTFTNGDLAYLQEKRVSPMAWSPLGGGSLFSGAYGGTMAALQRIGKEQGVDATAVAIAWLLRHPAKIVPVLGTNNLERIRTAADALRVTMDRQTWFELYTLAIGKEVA
# Columns and labels:
# [1] = molecular target: T1, SmoA (Atu3277), flavin mononucleotide reductase; assay: copurification, LC-MS of heat-released flavin; type: binding
# [2] = molecular target: T2, SmoB (Atu3278), 6-OG reductase; assay: ITC; type: binding
# [3] = substrate: NC(=O)C1=CN([C@@H]2O[C@H](COP(=O)(O)OP(=O)(O)OC[C@H]3O[C@@H](n4cnc5c(N)ncnc54)[C@H](O)[C@@H]3O)[C@@H](O)[C@H]2O)C=CC1; assay: purified protein; details: FMN
# [4] = molecular target: the molecule itself; assay: SEC-MALS
molecule,measurement,setting,value
Cc1cc2nc3c(=O)[nH]c(=O)nc-3n(C[C@H](O)[C@H](O)[C@H](O)COP(=O)(O)O)c2cc1C [FMN],"copurification, LC-MS of heat-released flavin",[1],to reveal that flavin mononucleotide (FMN) was the sole detectable flavin
NC(=O)C1=CN([C@@H]2O[C@H](COP(=O)(O)OP(=O)(O)OC[C@H]3O[C@@H](n4cnc5c(N)ncnc54)[C@H](OP(=O)(O)O)[C@@H]3O)[C@@H](O)[C@H]2O)C=CC1 [NADPH],Kd,[2],~2000 nM
"SmoA (Atu3277), flavin mononucleotide reductase (Agrobacterium fabrum str. C58) (protein) MTVVEAIKMPNEHVFVPGGENSRSFRNALGAFTTGVTVVTATTPEGPIGMTVNSFASVSLDPPLVLWSPAKSSSRHPAFSEATHFAIHVLSADQDVLSARFTRNGRAFDDLDWEINDEGVPVIPGTLARFECRRAAAHDAGDHTIIVGEVLRAAHRDGDPLCFSGGAFGRFSRQ",Km,[3],35 ± 5 µM
"SmoC (Atu3279), SQ monooxygenase from Agrobacterium tumefaciens C58 (enzyme) MTVVPVTSADLDAAEVSWFSALCSDDYAYLGVPDGSLRSSFEHCSDIVKKAEELGFRNILCPSSYQVGQDTLSFVAGCAPISDRINFLAAIRCGEMQPIMLARTVATLDHMLKGRLTLNVISSDFPGEVADSAFRYKRSHEVVEILRQAWTRDTIDHDGEIYQFKGVSTEPARPYQLNGGPLLYFGGYSPDALELCGAQCDVYLMWPETKDQLADRMRAAHERAAAHGRTLDYGLRVHMVVRDTEQEAREYADHLVSKLDDEYGQLIRNRAHDSGSLGVSHQARARELADKFGYVEPNLWTGIGRARSGCGAALVGSTDQVLSALEEYQKMGIRAFILSGYPHLDEAEHFGTKVLPQMKTCSLPHAYGRVPSETPATPLGNGERH",stoichiometry N,[4],2

# — article PMC8795539 (Proceedings of the National Academy of Sciences of the …, 2022)
